# Reference: the supplement of paper PMC10307832
# Legend:
# Test in all cases: relative viability (nuclei count vs DMSO), 5 days (fraction); higher = more cells survive
# Neratinib + Palbociclib = compound: CCOc1cc2ncc(C#N)c(Nc3ccc(OCc4ccccn4)c(Cl)c3)c2cc1NC(=O)/C=C/CN(C)C [Neratinib] + CC(=O)c1c(C)c2cnc(Nc3ccc(N4CCNCC4)cn3)nc2n(C2CCCC2)c1=O [Palbociclib] (partner 0.5 µM)
# In short: (§1)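 Relative viability is defined as nuclei in treated wells over nuclei in vehicle wells. Duplicate plates were run and medians reported. Lung cancer cell lines in 1536-well plates were dosed by pin tool one day after seeding, with one drug or with a fixed anchor-drug dose plus five library-drug doses (not always all listed) in √10 steps, and nuclei were counted after 5 days.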
# Neratinib + Dasatinib = compound: CCOc1cc2ncc(C#N)c(Nc3ccc(OCc4ccccn4)c(Cl)c3)c2cc1NC(=O)/C=C/CN(C)C [Neratinib] + Cc1nc(Nc2ncc(C(=O)Nc3c(C)cccc3Cl)s2)cc(N2CCN(CCO)CC2)n1 [Dasatinib] (partner 0.075 µM)
# In short: as §1
# Neratinib + Bortezomib = compound: CCOc1cc2ncc(C#N)c(Nc3ccc(OCc4ccccn4)c(Cl)c3)c2cc1NC(=O)/C=C/CN(C)C [Neratinib] + CC(C)C[C@H](NC(=O)[C@H](Cc1ccccc1)NC(=O)c1cnccn1)B(O)O [Bortezomib] (partner 0.002 µM)
# In short: as §1
# Neratinib + Alpelisib = compound: CCOc1cc2ncc(C#N)c(Nc3ccc(OCc4ccccn4)c(Cl)c3)c2cc1NC(=O)/C=C/CN(C)C [Neratinib] + Cc1nc(NC(=O)N2CCC[C@H]2C(N)=O)sc1-c1ccnc(C(C)(C)C(F)(F)F)c1 [Alpelisib] (partner 2 µM)
# In short: as §1
Cell Line,relative viability (Neratinib + Palbociclib; first compound 0.01 µM),relative viability (Neratinib + Palbociclib; first compound 0.03162 µM),relative viability (Neratinib + Palbociclib; first compound 0.1 µM),relative viability (Neratinib + Palbociclib; first compound 0.3162 µM),relative viability (Neratinib + Palbociclib; first compound 1 µM),relative viability (Neratinib + Dasatinib; first compound 0.01 µM),relative viability (Neratinib + Dasatinib; first compound 0.03162 µM),relative viability (Neratinib + Dasatinib; first compound 0.1 µM),relative viability (Neratinib + Dasatinib; first compound 0.3162 µM),relative viability (Neratinib + Dasatinib; first compound 1 µM),relative viability (Neratinib + Bortezomib; first compound 0.01 µM),relative viability (Neratinib + Bortezomib; first compound 0.03162 µM),relative viability (Neratinib + Bortezomib; first compound 0.1 µM),relative viability (Neratinib + Bortezomib; first compound 0.3162 µM),relative viability (Neratinib + Bortezomib; first compound 1 µM),relative viability (Neratinib + Alpelisib; first compound 0.01 µM),relative viability (Neratinib + Alpelisib; first compound 0.03162 µM),relative viability (Neratinib + Alpelisib; first compound 0.1 µM),relative viability (Neratinib + Alpelisib; first compound 0.3162 µM),relative viability (Neratinib + Alpelisib; first compound 1 µM)
NCI-H1651,0.542,0.558,0.499,0.45,0.467,0.424,0.505,0.371,0.452,0.32,1.07,1.13,0.86,0.902,0.852,1.03,1,0.823,0.783,0.616
LCLC-103H,0.517,0.478,0.457,0.474,0.46,0.551,0.5,0.415,0.375,0.346,1.18,1.1,0.905,1.16,1.1,1,1,0.711,0.966,0.629
NCI-H1666,0.597,0.711,0.579,0.625,0.774,0.842,0.887,0.701,0.581,0.586,0.894,0.896,0.767,0.609,0.662,0.919,0.772,0.57,0.433,0.369
NCI-H1734,0.409,0.395,0.241,0.328,0.28,0.475,0.466,0.424,0.38,0.345,1.27,0.996,0.912,0.934,0.74,0.744,–,0.588,0.533,0.479
EPLC-272H,0.357,0.309,0.224,0.295,0.292,–,0.457,0.284,0.208,0.152,0.841,0.994,0.881,0.775,0.65,0.962,0.87,0.699,0.71,0.352
NCI-H2085,0.468,0.456,0.467,0.419,0.382,0.261,0.264,0.254,0.21,0.234,1.05,–,0.869,1.06,0.76,1.02,–,0.778,0.7,0.549
BEN,0.459,0.47,0.45,0.457,0.447,0.329,0.305,0.319,0.3,0.414,0.844,1.02,0.72,0.615,0.635,1.06,1.28,0.983,1.04,0.598
COR-L 105,0.397,0.451,0.385,0.351,0.341,0.288,0.353,0.236,0.146,0.164,0.856,0.883,0.429,0.347,0.346,1.04,0.936,0.704,0.263,0.255
ABC-1,0.618,0.721,0.472,0.587,0.486,0.638,–,0.593,0.455,0.349,0.297,0.348,0.379,0.3,0.312,1.16,1.04,0.726,0.904,0.384
HCC-15,0.764,0.828,0.738,0.692,0.511,0.655,0.676,0.555,0.644,0.517,0.948,1.16,0.932,0.956,0.882,0.931,0.92,0.864,0.859,0.584
SW 1573,0.382,0.422,0.428,0.289,0.217,0.455,0.519,0.455,0.495,0.322,1.07,1.28,0.998,1.08,0.843,0.94,–,0.591,0.577,0.515
NCI-H2009,0.176,0.266,0.21,0.243,0.208,0.3,0.347,0.301,0.292,0.206,0.998,1.08,0.856,0.825,–,1.14,1.16,1.11,1.17,0.955
NCI-H1915,0.538,0.537,0.504,0.528,0.414,0.384,0.339,0.218,0.332,0.287,1.06,1.03,0.952,0.874,0.962,1.12,1.13,1.04,0.99,0.829
UMC-11,0.321,0.327,0.319,0.335,0.243,0.482,0.505,0.399,0.384,0.425,0.623,0.964,0.823,0.615,0.729,0.721,0.988,0.96,0.963,0.802
LOU-NH91,0.504,0.547,0.557,0.462,0.536,0.579,0.504,0.448,0.413,0.377,0.477,0.51,0.484,0.507,0.559,0.628,0.598,0.507,0.447,0.475
NCI-H2405,0.56,0.579,0.534,0.567,0.419,0.225,0.23,0.218,0.212,0.199,1.05,1.09,0.708,0.998,0.954,0.815,0.808,0.811,0.633,0.287
